Where two headings read alike, the source gives them in different places.
Tests used:
DoHH2 cells = assay: Cell proliferation assay, DoHH2 cells (MTS, 120 h); format: cell-based
Method: MTS testing kit was purchased from Promega (Madison, Wis., USA). The RPMI-1640, Fetal bovine serum and Penicillin-Streptomycin were purchased from BI (Biological Industries, Beit Haemek, Israel). Dimethyl sulfoxide (DMSO) was purchased from Sigma (St. Louis, Mo., USA). DoHH2 (DSMZ catalog #: ACC47) cells were cultured in RPMI-1640 supplemented with Penicillin-Streptomycin and 10% FBS.
To investigate whether a compound is able to inhibit the activity of BCL-2 in cells, a mechanism-based assay using DoHH2 lines was developed. In this assay, the inhibition of BCL-2 was reflected by the inhibition of cell proliferation of DoHH2 cells. Cells were plated into 96-well plates at the optimized cell density of 5000 cells/well. Plates were incubated at 37° C., with 5% CO2 for 4h. Compounds were serially diluted and added to the plates with the final concentrations of 10000, 3333.3, 1111.1, 370.4, 123.5, 41.2, 13.7, 4.6 and 1.5 nM. Plates were incubated at 37° C., with 5% CO2 for 120 h. 20 μl MTS was added into each well and the plates were incubated at 37° C., with 5% CO2 for exactly 2 h. The absorbance was measured by a microplate reader at 490 nm. IC50 was calculated using GraphPad Prism 5.0 software.

Toledo cells = assay: Cell proliferation assay, Toledo cells (MTS, 72 h); format: cell-based; conditions: Toledo cells, MTS, read-out: Toledo IC50
Procedure, shortened: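 Toledo cells (30000/well, RPMI-1640 with 10% FBS) were preincubated for 4 h. They were then exposed to nine compound concentrations from 10000 to 1.5 nM for 72 h at 37 °C, 5% CO2. MTS was added for 2 h and absorbance read at 490 nm to give IC50.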

CC(C)c1ccccc1[C@@H]1CCC[C@@H]1N1CC2(CCN(c3ccc(C(=O)NS(=O)(=O)c4cnc(NC[C@H]5CC[C@](C)(O)CC5)c([N+](=O)[O-])c4)c(Oc4cnc5[nH]ccc5c4)c3)CC2)C1 (single isomer, unassigned) [Example A-136, 2-((1H-pyrrolo[2,3-b]pyridin-5-yl)oxy)-N-((6-((((1r,4r)-4-hydroxy-4-methylcyclohexyl)methyl)amino)-5-nitropyridin-3-yl)sulfonyl)-4-(2-((1R,2R or 1S, 2S)-2-(2-isopropylphenyl)cyclo-pentyl)-2,7-diazaspiro[3.5]nonan-7-yl)benzamide]
IC50 (DoHH2 cells; Homo sapiens, DOHH-2): ≤ 1 nM | IC50 (Toledo cells; Homo sapiens): 1 nM

CC(C)c1ccccc1[C@@H]1COCCN1C1CC2(CCN(c3ccc(C(=O)NS(=O)(=O)c4cnc(NC[C@H]5CC[C@](C)(O)CC5)c([N+](=O)[O-])c4)c(Oc4cnc5[nH]cc(F)c5c4)c3)CC2)C1 (single isomer, unassigned) [Example A-128, 2-((3-fluoro-1H-pyrrolo[2,3-b]pyridin-5-yl)oxy)-N-((6-((((1r,4r)-4-hydroxy-4-methylcyclohexyl)methyl)amino)-5-nitropyridin-3-yl)sulfonyl)-4-(2-((R or S)-3-(2-isopropylphenyl)morpholino)-7-azaspiro[3.5]nonan-7-yl) benzamide]
IC50 (DoHH2 cells; Homo sapiens, DOHH-2): ≤ 1 nM | IC50 (Toledo cells; Homo sapiens): 1 nM

CC(C)c1ccccc1C1CN(C)CCN1C1CC2(CCN(c3ccc(C(=O)NS(=O)(=O)c4cnc(NCC5CCC(C)(O)CC5)c([N+](=O)[O-])c4)c(Oc4cnc5[nH]ccc5c4)c3)CC2)C1 (single isomer, unassigned) [Example A-62, (R or S)-2-((1H-pyrrolo[2,3-b]pyridin-5-yl)oxy)-N-((6-(((4-hydroxy-4-methylcyclohexyl)methyl)amino)-5-nitropyridin-3-yl)sulfonyl)-4-(2-(2-(2-isopropylphenyl)-4-methyl-piperazin-1-yl)-7-azaspiro[3.5]nonan-7-yl)benzamide]
IC50 (DoHH2 cells; Homo sapiens, DOHH-2): ≤ 1 nM | IC50 (Toledo cells; Homo sapiens): 1 nM

O=C(NS(=O)(=O)c1cc2c(c([N+](=O)[O-])c1)O[C@H](CN1CCOCC1)CO2)c1ccc(N2CCC3(CC2)CC(N2CCOC[C@H]2c2ccccc2C2CC2)C3)cc1Oc1cnc2[nH]ccc2c1 (single isomer, unassigned) [Example E-41, 2-((1H-pyrrolo [2,3-b]pyridin-5-yl)oxy)-4-(2-((R or S)-3-(2-cyclopropylphenyl)morpholino)-7-azaspiro[3.5]nonan-7-yl)-N-(((R)-2-(morpholinomethyl)-8-nitro-2,3-dihydrobenzo [b][1,4]dioxin-6-yl)sulfonyl) benzamide]
IC50 (DoHH2 cells; Homo sapiens, DOHH-2): ≤ 1 nM | IC50 (Toledo cells; Homo sapiens): 1 nM

CC(C)c1ccccc1[C@@H]1COCCN1C1CC2(CCN(c3ccc(C(=O)NS(=O)(=O)c4cnc(NC[C@H]5CC[C@](C)(O)CC5)c([N+](=O)[O-])c4)c(Oc4cnc5[nH]cc(Cl)c5c4)c3)CC2)C1 (single isomer, unassigned) [Example A-129, 2-((3-chloro-1H-pyrrolo[2,3-b]pyridin-5-yl)oxy)-N-((6-((((1r,4r)-4-hydroxy-4-methylcyclohexyl)methyl)amino)-5-nitropyridin-3-yl)sulfonyl)-4-(2-((R or S)-3-(2-isopropylphenyl)morpholino)-7-azaspiro[3.5]nonan-7-yl) benzamide]
IC50 (DoHH2 cells; Homo sapiens, DOHH-2): ≤ 1 nM | IC50 (Toledo cells; Homo sapiens): 1 nM

CC(C)c1ccccc1[C@@H]1CCCN1C1CC2(CCN(c3ccc(C(=O)NS(=O)(=O)c4cc5c(c([N+](=O)[O-])c4)O[C@@H](CN4CCOCC4)CO5)c(Oc4cnc5[nH]ccc5c4)c3)CC2)C1 (single isomer, unassigned) [Example E-35, 2-((1H-pyrrolo [2,3-b]pyridin-5-yl)oxy)-4-(2-((R or S)-2-(2-isopropylphenyl)pyrrolidin-1-yl)-7-azaspiro[3.5]nonan-7-yl)-N-(((S)-2-(morpholinomethyl)-8-nitro-2,3-dihydrobenzo [b][1,4]dioxin-6-yl)sulfonyl) benzamide]
IC50 (DoHH2 cells; Homo sapiens, DOHH-2): ≤ 1 nM | IC50 (Toledo cells; Homo sapiens): 7 nM

CC(C)c1ccccc1C1COCCN1C1CC2(CCN(c3ccc(C(=O)NS(=O)(=O)c4cnc(NCC5CCC(N=S(C)(C)=O)CC5)c([N+](=O)[O-])c4)c(Oc4cnc5[nH]ccc5c4)c3)CC2)C1 (single isomer, unassigned) [Example A-57, 2-((1H-pyrrolo[2,3-b]pyridin-5-yl)oxy)-N-((6-((((1r,4r)-4-((dimethyl (oxo)-λ^6-sulfanylidene)amino)cyclohexyl)methyl)amrno)-5-nitro-pyridin-3-yl)sulfonyl)-4-(2-((R or S)-3-(2-isopropylphenyl)morpho-lino)-7-azaspiro[3.5]nonan-7-yl) benzamide]
IC50 (DoHH2 cells): ≤ 1 nM | IC50 (Toledo cells): 2 nM

CC(C)c1ccccc1C1COCCN1C1CC2(CCN(c3ccc(C(=O)NS(=O)(=O)c4cc5c(c([N+](=O)[O-])c4)O[C@@H](CN4CCOCC4)CO5)c(Oc4cnc5[nH]ccc5c4)c3)CC2)C1 (single isomer, unassigned) [Example E-36, 2-((1H-pyrrolo [2,3-b]pyridin-5-yl)oxy)-4-(2-((R or S)-3-(2-isopropylphenyl)morpholino)-7-azaspiro[3.5]nonan-7-yl)-N-(((S)-2-(morpholinomethyl)-8-nitro-2,3-dihydrobenzo [b][1,4]dioxin-6-yl)sulfonyl)benzamide]
IC50 (DoHH2 cells; Homo sapiens, DOHH-2): ≤ 1 nM

CC(C)c1ccccc1[C@@H]1COCCN1C1CC2(CCN(c3ccc(C(=O)NS(=O)(=O)c4cc([N+](=O)[O-])c5c(n4)OC[C@H]([C@H]4CC[C@@](C)(O)CC4)N5)c(Oc4cnc5[nH]ccc5c4)c3)CC2)C1 (single isomer, unassigned) [Example B-48, 2-((1H-pyrrolo[2,3-b]pyridin-5-yl)oxy)-N-(((S)-2-((1s,4R)-4-hydroxy-4-methylcyclohexyl)-8-nitro-2,3-dihydro-1H-pyrido[2,3-b] [1,4]oxazin-6-yl)sulfonyl)-4-(2-((R or S)-3-(2-isopropylphenyl)morpholino)-7-azaspiro[3.5]nonan-7-yl) benzamide]
IC50 (DoHH2 cells; Homo sapiens, DOHH-2): ≤ 1 nM

CC(C)c1ccccc1[C@@H]1CCCN1C1CC2(CCN(c3ccc(C(=O)NS(=O)(=O)c4cnc(NCC5CCC(C)(O)CC5)c([N+](=O)[O-])c4)c(Oc4cnc5[nH]ccc5c4)c3)CC2)C1 (stereo partly drawn) [Example A-6b, (S)-2-((1H-pyrrolo[2,3-b]pyridin-5-yl)oxy)-N-((6-(((4-hydroxy-4-methylcyclohexyl)methyl)amino)-5-nitropyridin-3-yl)sulfonyl)-4-(2-(2-(2-isopropylphenyl)pyrrolidin-1-yl)-7-azaspiro[3.5]nonan-7-yl) benzamide]
IC50 (DoHH2 cells; Homo sapiens, DOHH-2): ≤ 1 nM

O=C(NS(=O)(=O)c1cc2c(c([N+](=O)[O-])c1)N[C@@H](CN1CCOCC1)CCO2)c1ccc(N2CCC3(CC2)CC(N2CCC[C@H]2c2ccccc2C2CC2)C3)cc1Oc1cnc2[nH]ccc2c1 (single isomer, unassigned) [Example D-24, 2-((1H-pyrrolo[2,3-b]pyridin-5-yl)oxy)-4-(2-((R or S)-2-(2-cyclopropylphenyl)pyrrolidin-1-yl)-7-azaspiro[3.5]nonan-7-yl)-N-(((R)-4-(morpholinomethyl)-6-nitro-2,3,4,5-tetrahydrobenzo [b][1,4]oxazepin-8-yl)sulfonyl) benzamide]
IC50 (DoHH2 cells; Homo sapiens, DOHH-2): ≤ 1 nM

CC(C)c1ccccc1C1CCCN1C1CC2(CCN(c3ccc(C(=O)NS(=O)(=O)c4cc([N+](=O)[O-])c5c(n4)OC[C@H](CC4CCOCC4)N5)c(Oc4cnc5[nH]ccc5c4)c3)CC2)C1 (single isomer, unassigned) [Example B-40, 2-((1H-pyrrolo[2,3-b]pyridin-5-yl)oxy)-4-(2-((R or S)-2-(2-isopropylphenyl)pyrrolidin-1-yl)-7-azaspiro[3.5]nonan-7-yl)-N-(((S)-8-nitro-2-((tetrahydro-2H-pyran-4-yl)methyl)-2,3-dihydro-1H-pyrido[2,3-b][1,4]oxazin-6-yl)sulfonyl)benzamide]
IC50 (DoHH2 cells; Homo sapiens, DOHH-2): ≤ 1 nM

From patent US20230159527A1, “COMPOUNDS AS BCL-2 INHIBITORS” (Fochon Pharmaceuticals, Ltd., priority 2020, published 2023)
